Results taken from patent US11179412B2, “Methods of treating conditions involving elevated inflammatory response” (University of Pittsburgh—Of the Commonwealth System of …, priority 2017, dated 2021).

Legend:
[1] = target: T1, interaction between ALK and EGFR (Homo sapiens, UniProt P00533+Q9UM73); experiment: IP analysis of the interaction between ALK and EGFR, THP1; format: cell-based; settings: 3′3′-cGAMP or c-di-AMP 10 μg/ml, 16 hours, 10 μM
T1 construct: endogenous in cells; host or cells: THP1 cells
T1 sequence (Q9UM73 19-1620): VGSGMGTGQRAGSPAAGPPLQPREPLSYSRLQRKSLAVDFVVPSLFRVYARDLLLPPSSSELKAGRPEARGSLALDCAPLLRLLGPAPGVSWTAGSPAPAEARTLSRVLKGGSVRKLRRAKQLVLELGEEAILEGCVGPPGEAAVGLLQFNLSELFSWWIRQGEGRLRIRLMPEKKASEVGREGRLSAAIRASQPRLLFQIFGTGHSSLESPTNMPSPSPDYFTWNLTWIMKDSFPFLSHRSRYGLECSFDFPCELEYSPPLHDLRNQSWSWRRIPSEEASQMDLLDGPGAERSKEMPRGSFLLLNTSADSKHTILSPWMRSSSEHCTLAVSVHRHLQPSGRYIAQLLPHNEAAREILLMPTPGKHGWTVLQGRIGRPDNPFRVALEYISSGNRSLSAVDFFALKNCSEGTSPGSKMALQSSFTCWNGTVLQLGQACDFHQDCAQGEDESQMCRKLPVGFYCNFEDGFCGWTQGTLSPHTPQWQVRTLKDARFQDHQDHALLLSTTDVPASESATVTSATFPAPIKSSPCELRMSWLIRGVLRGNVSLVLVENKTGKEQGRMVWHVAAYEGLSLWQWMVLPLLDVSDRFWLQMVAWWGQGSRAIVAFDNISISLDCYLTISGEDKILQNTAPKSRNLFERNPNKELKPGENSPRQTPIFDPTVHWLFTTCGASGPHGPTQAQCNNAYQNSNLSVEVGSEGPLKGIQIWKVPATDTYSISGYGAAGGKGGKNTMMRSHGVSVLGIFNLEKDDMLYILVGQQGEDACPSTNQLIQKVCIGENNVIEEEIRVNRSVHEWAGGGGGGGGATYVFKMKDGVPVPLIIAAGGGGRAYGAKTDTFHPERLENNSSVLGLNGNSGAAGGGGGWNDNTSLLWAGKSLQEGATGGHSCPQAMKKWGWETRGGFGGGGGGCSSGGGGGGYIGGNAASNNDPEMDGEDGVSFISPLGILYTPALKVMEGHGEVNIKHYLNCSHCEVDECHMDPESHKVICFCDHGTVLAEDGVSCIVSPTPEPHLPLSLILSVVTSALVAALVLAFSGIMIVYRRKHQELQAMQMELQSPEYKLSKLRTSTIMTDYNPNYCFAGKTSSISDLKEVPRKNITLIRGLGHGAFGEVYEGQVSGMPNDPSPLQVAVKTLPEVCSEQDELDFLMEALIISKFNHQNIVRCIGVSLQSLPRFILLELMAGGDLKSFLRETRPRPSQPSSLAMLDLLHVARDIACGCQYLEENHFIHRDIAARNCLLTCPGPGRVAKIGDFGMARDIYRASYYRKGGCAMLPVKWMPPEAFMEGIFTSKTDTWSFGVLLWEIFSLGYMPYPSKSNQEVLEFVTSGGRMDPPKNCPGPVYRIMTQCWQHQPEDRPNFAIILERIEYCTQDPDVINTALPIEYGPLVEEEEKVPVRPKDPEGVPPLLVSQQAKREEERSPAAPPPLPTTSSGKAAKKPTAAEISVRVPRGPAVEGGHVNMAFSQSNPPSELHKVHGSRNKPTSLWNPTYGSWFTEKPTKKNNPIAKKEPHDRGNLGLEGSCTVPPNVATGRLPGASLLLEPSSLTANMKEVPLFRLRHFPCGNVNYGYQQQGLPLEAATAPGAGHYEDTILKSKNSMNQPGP
T1 sequence (P00533 25-1210): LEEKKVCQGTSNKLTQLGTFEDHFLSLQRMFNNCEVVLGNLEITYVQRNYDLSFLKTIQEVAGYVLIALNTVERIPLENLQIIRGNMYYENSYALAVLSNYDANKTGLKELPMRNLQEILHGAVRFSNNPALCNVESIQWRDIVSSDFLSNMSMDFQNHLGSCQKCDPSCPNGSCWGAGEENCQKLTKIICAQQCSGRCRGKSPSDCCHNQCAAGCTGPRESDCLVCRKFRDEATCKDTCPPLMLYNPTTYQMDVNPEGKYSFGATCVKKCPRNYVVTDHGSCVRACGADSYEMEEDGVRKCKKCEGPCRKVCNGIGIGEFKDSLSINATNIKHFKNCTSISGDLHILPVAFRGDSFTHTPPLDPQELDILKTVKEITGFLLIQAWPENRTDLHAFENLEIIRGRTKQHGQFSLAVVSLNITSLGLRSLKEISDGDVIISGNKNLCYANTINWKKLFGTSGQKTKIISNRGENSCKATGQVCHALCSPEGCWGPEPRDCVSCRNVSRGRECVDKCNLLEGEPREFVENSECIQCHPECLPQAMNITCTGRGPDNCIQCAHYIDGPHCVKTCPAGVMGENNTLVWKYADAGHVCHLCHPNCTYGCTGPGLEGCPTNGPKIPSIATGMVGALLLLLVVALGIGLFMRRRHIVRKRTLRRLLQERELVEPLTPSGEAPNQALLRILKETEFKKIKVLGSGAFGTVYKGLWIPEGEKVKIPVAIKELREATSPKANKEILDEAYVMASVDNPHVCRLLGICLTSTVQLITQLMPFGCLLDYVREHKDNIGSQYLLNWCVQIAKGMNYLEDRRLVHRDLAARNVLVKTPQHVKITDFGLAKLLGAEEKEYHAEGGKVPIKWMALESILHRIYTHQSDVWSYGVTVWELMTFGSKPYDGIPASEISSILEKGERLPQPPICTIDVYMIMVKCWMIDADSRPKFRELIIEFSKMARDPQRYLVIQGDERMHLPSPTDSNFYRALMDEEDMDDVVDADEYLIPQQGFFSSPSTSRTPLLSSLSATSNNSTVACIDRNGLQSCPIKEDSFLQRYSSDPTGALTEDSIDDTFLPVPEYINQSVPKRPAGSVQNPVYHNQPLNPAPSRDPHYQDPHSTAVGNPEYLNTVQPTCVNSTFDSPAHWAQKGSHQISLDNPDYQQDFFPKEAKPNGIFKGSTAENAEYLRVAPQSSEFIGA
Experimental: For immunoprecipitation, cells were lysed at 4° C. in ice-cold modified radioimmunoprecipitation lysis buffer (#9806, Cell Signaling Technology) and cell lysates were cleared by centrifugation (12,000 g, 10 min). Concentrations of proteins in the supernatant were determined by bicinchoninic acid assay. Prior to immunoprecipitation, samples containing equal amounts of proteins were pre-cleared with Protein A/G agarose/sepharose beads (#20423, Thermo Fisher Scientific Inc.) (4° C., 3 h) and subsequently incubated with various irrelevant IgG or anti-ALK (#ab190934, Abcam) or anti-EGFR antibodies (#2232S, Cell Signaling Technology) in the presence of Protein A/G agarose/sepharose beads overnight at 4° C. with gentle shaking. Following incubation, agarose/sepharose beads were washed extensively with PBS and proteins were eluted by boiling in 2× sodium dodecyl sulfate (SDS) sample buffer before SDS-PAGE electrophoresis.

[2] = system: IFNβ mRNA in RAW264.7 cells; experiment: IFNβ mRNA Q-PCR, RAW264.7 cells; format: cell-based, mouse; settings: STING ligands 10 μg/ml, inhibitor 10 μM, 16 hours
Experimental: Total RNA was extracted using QIAGEN RNeasy Plus Kit according to the manufacturer's instructions. First-strand cDNA was synthesized from 1 μg of RNA using the iScript cDNA Synthesis kit (#1708890, Bio-Rad). Briefly, 20 μl reactions were prepared by combining 4 μl iScript Select reaction mix, 2 μl gene-specific enhancer solution, 1 μl reverse transcriptase, 1 μl gene-specific assay pool (20×, 2 μM), and 12 μl RNA diluted in RNase-free water. Quantitative real-time PCR was carried out using synthesized cDNA, primers, and SsoFast EvaGreen Supermix (#172-5204, Bio-Rad). The expression of target genes was calculated using the ddCt method relative to the expression of a house-keeping gene, β-actin. Data shown are the relative quantity (RQ), with RQ of the control cells set to one.

Cc1cc(Nc2ncc(Cl)c(Nc3ccccc3S(=O)(=O)C(C)C)n2)c(OC(C)C)cc1C1CCNCC1 [LDK378, 5-chloro-N^2-(2-isopropoxy-5-methyl-4-(piperidin-4-yl)phenyl)-N^4-[2-(propane-2-sulfonyl)-phenyl]-pyrimidine-2,4-diamine]
interaction between ALK and EGFR [1]: reduced
STING ligand-induced IFNβ mRNA expression [2]: attenuation
